Results on four molecules are retold here after article PMC2887388 (Journal of natural products, 2009).

In experiment [1] the test system is HT-29 human colon cancer cell line. Kind of experiment: Cytotoxicity assay against HT-29 human colon cancer cell line. Format: cell-based. The conditions noted are these: HT-29, read-out: cytotoxicity ED50.
The next experiment relates to HT-29 cells. As to the kind of experiment: In vivo hollow fiber assay, HT-29 cells. Further details: species or system human. The conditions noted are these: cells implanted at i.p. site; doses 2.5, 5, 10, 20 mg/kg.
Experiment [2] deals with LNCaP (hormone-dependent human prostate cancer) cells. As to the kind of experiment: In vivo hollow fiber assay, LNCaP cells. Conditions: cells implanted at i.p. site; doses 2.5, 5, 10, 20 mg/kg.

Take `COc1cc2oc3cc(O)c(OC)c(CC=C(C)C)c3c(=O)c2c2c1CC(O)C(C)(C)O2` (centres unmarked) [Compound 1, 11-hydroxy-3-O-methyl-1-isomangostin]: in experiment [1], the IC50 is above 10 µM.

`COc1c(O)cc2oc3cc(O)c4c(c3c(=O)c2c1CC=C(C)C)OC(C)(C)C(O)C4` (centres unmarked) [Compound 2, 11-hydroxy-1-isomangostin]: the IC50 in experiment [1] is above 10 µM.

`COc1c(O)cc2oc3cc(O)c(CC=C(C)C)c(O)c3c(=O)c2c1CC=C(C)C` [Compound 5, α-mangostin]: in the experiment with HT-29 cells, the “activity in hollow fiber assay (HT-29)” value is “inactive”. Further, the “activity in hollow fiber assay (LNCaP)” value in experiment [2] was “inactive”.

As for `COc1c(O)cc2oc3cc4c(c(O)c3c(=O)c2c1CC=C(C)C)[C@@H](c1c(O)c(CC=C(C)C)c(O)c2c(=O)c3c(CC=C(C)C)c(OC)c(O)cc3oc12)[C@H](C(C)(C)O)O4` [Compound 11, cratoxyxanthone], the IC50 in experiment [1] is above 10 µM.
